According to US20080108545A1, “Peptide Nucleic Acid Conjugates and Uses Thereof” (UNIVERSITY OF OTAGO, priority 2003, published 2008):

Experiments:
human fibroblasts = assay: Confocal immunofluorescent microscopy of fixed fibroblasts; assay type: cell-based; settings: 1 μM, 30 min, 1 h and up to 4 h
Protocol: For immunocytochemistry trypsinised human fibroblasts (5,000 cells per well) were plated onto 13 mm diameter glass coverslips in 24 well plates overnight. Following incubation for 4 h at 37° C. with 1 μM TPP-PNA conjugates, cells were fixed with 4% paraformaldehyde (PFH) in TBS for 30 min, washed with TBS and incubated with 10% FCS/0.1% Triton X-100/TBS (TBST) for 10 min. The IgG fraction of anti-triphenylphosphonium serum (1:500) was diluted in TBST, then added and incubated overnight at 4° C. The IgG fraction of preimmune serum was used as a control. After washing with TBS (3×5 min) the cells were incubated with anti-rabbit IgG Oregon green fluorophore-conjugated secondary antibody diluted 1:100 in TBS for 15 min in the dark. The cells were washed in TBS and incubated for another 15 min with streptavidin conjugated CY3 (1:200, Molecular Probes) in the dark, to detect biotin. Cells were then washed in TBS, mounted in DABCO/PVA medium (15 g PVA, 15 g 1,4-diazabicyclo (2,2,2) octane in 30% glucerol in 0.1 M Tris, pH 8.5) and mounted onto coverslips. […]
The localisation of TPP-PNA conjugate within human fibroblasts was also determined by fixing cells that had been incubated with TPP-PNA, PNA or without any additions for up to 4 h and visualising the localisation of the PNA by confocal immunofluorescent microscopy (FIG. 6). […]

PAX2 mRNA = assay: Down regulation of PAX2 protein expression (western blot) in P388 cells; assay type: cell-based, mouse; settings: 1 μM; for PAX2 protein expression: over 4 days
Protocol: Rabbit anti-PAX2 polyclonal antibody (Zymed) diluted 1:1000 in TBS, 0.1% fat free milk powder, 0.1% Tween-20 was used for PAX-2 detection following overnight incubation with the membrane. After 3×10 min washes in TBS, 0.1% Tween-20, horseradish peroxidase conjugated goat antirabbit IgG (1:10,000, Biorad) was used as a secondary antibody. To detect biotin, horse radish peroxidase conjugated extravidin (1:3,000, Sigma) was used. In both cases secondary antibody binding was carried out for 1 h at room temperature, followed by 3×10 min washes in TBS and visualized by chemiluminescence using a Pierce Super Signal R chemiluminescence substrate with Kodak X-OMAT™ AR imaging film.

[1] = test system: P388 leukemia cancer cells; assay: General cell proliferation of treated P388 cells; assay type: cell-based, mouse; settings: 1 μM
From the text: To investigate the biological effects of the anti-PAX2 TPP-fluPNA conjugate we used a mouse cell line that highly expresses the PAX2 protein. […] This is most likely due to the absence of the cation that effectively delivers the PNA to the cells.

HNF4α pre-mRNA = assay: RT-PCR of HNF4α mRNA, exon 9 skipping in BNL-CL2 liver cells; assay type: cell-based, mouse
Protocol: A mouse liver cell line, BNL-CL2, was grown at 37° C. and 5% CO2 in humidified atmosphere in Dulbecco's Modified Eagle's Medium supplemented with 10% inactivated FBS, 100 units.mL−1 penicillin, and 100 μg.mL−1 streptomycin, but without sodium pyruvate. To culture the cells with PNA, cells were seeded into a 96-well-plate, followed 16 h later by addition of 1 μM TPP-fluPNA alone or in an aqueous solution of 150 μM Chloroquine, and cultured for another 70 h. Images were acquired using a Zeiss inverted confocal microscope with 488 nm excitation wavelength light for tracking the TPP-fluPNA. Mitochondria specific dye MitoTracker Red CMXRos was added into cultured medium 2 h before taking confocal images using 578 nm excitation wavelength light.
Total RNA was extracted from cells cultured with either fluoresceinated or non-fluoresceinated TPP-PNA, or with PNA dissolved in 150 μM Chloroquine, or with medium controls for 24 h or 72 h. The concentration of extracted RNA was quantified using a NanoDrop spectrophotometer, and 1 μg of total RNA was reverse transcribed into cDNA using Invitrogen SuperScript III and random primers. […]. […]

P388 cells = assay: Gel/blot detection of PNA and phosphonium in fractions of conjugate-treated P388 cells; assay type: cell-based, mouse; settings: after treatment with TPP-PNA, FIG. 5D
Protocol: Cells (143B, human fibroblasts, COS-7, P388 and IMCD) were grown at 37° C. and 5% CO2 in humidified atmosphere in Dulbecco's modified Eagle's medium supplemented with 10% inactivated foetal calf serum (FCS). All cell culture media contained 100 units.mL^−1 penicillin, and 100 μg.mL^−1 streptomycin. Protein was quantitated by the bicinchoninic acid assay. Cells were incubated with 1 μM TPP-PNA or with PNA alone for the indicated times. The disulfide bond in the TPP-PNA is stable in the oxidizing extracellular environment but is labile in the reducing cytoplasmic mulieu (FIG. 1).
For conjugate detection, 143B cell lysates treated with TPP-PNA conjugates (˜5 nmol) in 20 μL loading buffer (50 mM Tris, 4% SDS, 12% glycerol, 2% 2-mercaptoethanol, 0.01% coomassie brilliant blue) were separated on 18.5% Tris-tricine gels using a BioRad Mini Protean system (Schagger and von Jagow, 1987). For PAX-2 detection, P388 and IMCD cell lysates in loading buffer were resolved on 12.5% Tris-glycine gels (Laemmli, 1970). […]
The P388 cells were treated as described before, the lysates were resolved on Tris-tricine gels and the TPP-fluPNA conjugates were detected using a GelDoc fluorescence imager. […]

Biotin-XX-GTTGGCTCTCT-X-Cys-CO2H [bioPNA]
Uptake of unconjugated PNA (human fibroblasts): uptake (red) only after 4 h

Fluoroscein-XX-TTCACACCCCCGTGCC-X-Cys-CO2H (5' fluorescein via linkers, 3' linker and cysteine, further chemistry not given here) [unmodified anti-PAX2 PNA, unconjugated fluoroscein-tagged PNA oligomer targeting human and mouse PAX2 mRNA, reference compound]
PAX2 protein expression (PAX2 mRNA): did not decrease PAX2 protein levels

TPP-fluPNA(PAX-2): Fluoroscein-XX-TTCACACCCCCGTGCC-X-Cys-CO2H PNA targeting PAX2 mRNA, disulfide linked to thiobutyltriphenylphosphonium (all peptide nucleic acid (PNA); 5' fluorescein via linkers, 3' linker-Cys disulfide-linked to triphenylphosphonium)
Duration of inhibition of PAX2 expression (PAX2 mRNA): 4 days | PAX2 protein expression (PAX2 mRNA): significant inhibition of PAX2 expression | General cell proliferation [1]: did not affect general cell proliferation

TPP-lysPNA(HNF4-α): Lys-GTCCCAGACGGT-Cys-COOH PNA targeting mouse HNF4α mRNA, conjugated with TBTP
Exon 9-skipped splice variant RT-PCR product (HNF4α pre-mRNA; 1 μM in cell culture media for 70 h, no transfection reagent): A 352 bp RT-PCR product was observed | Exon 9-skipped splice variant RT-PCR product (HNF4α pre-mRNA; transfected using chloroquine): A 352 bp RT-PCR product was observed

thiobutyltriphenylphosphonium [TBTP]
Localisation of phosphonium cation, anti-phosphonium serum (P388 cells): detected in the mitochondrial fractions
